Compound | melting point [°C]
CC(=O)C(=Cc1cc(O)c(O)c(Cl)c1)C(C)=O | 167 to 171
N#Cc1c(CNC(=O)C2(S(=O)(=O)c3ccc(Cl)cc3)CCCC2)nn(-c2ccccc2Cl)c1-c1ccc(Cl)cc1 | 109
CN1C(=O)N(C)C(=O)C(C(N)=O)(c2ccc(Cl)cc2)C1=O | 225 to 227
CC(C)(C)OC(=O)[C@H]1C[C@H](S(=O)(=O)c2ccccc2)[C@@H](c2ccccc2)N1C(=O)CNC(=O)Nc1cccc(C(=O)O)c1 (racemic) | 213
CC(=O)OC1CC2CCC3C(CCC4(C)C3CC(N3CCN(C)CC3)C4OC(C)=O)C2(C)CC1N1CCCCC1 (centres undefined) | 95 to 98
Cc1cccc(NC(=O)NC2CN(C(=O)CN3CCN(C)CC3)c3ccccc3N(CC(=O)c3ccccc3C)C2=O)c1 (centres undefined) | 245 to 247
O=[N+]([O-])c1ccccc1Nc1nc(-c2ccccc2)cs1 | 114 to 116
O=C(Cc1cccc(Oc2ccccc2)c1)Nc1cc(Cl)c(Cl)cc1[N+](=O)[O-] | 135 to 137
COC(=O)/C=C/c1cccc(Br)c1 | 53 to 55
COc1ccc(Nc2ccccc2)c2c1c(CCN(C)C)cn2C | 158 to 160
CC(=O)Nc1nc(CCc2ccc(N)cc2)c(-c2ccc(S(C)(=O)=O)cc2)s1 | 202 to 204
Oc1cccc(C(F)(F)F)n1 | 117 to 118
CSCCN1CSC(=Cc2cc(C(C)(C)C)c(O)c(C(C)(C)C)c2)C1=O | 166 to 168
CCN(CC)c1nc(Cl)c([N+](=O)[O-])s1 | 85
NS(=O)(=O)Cc1cccc(NC(=O)c2cnn3c(C(F)F)cc(-c4ccc(C(F)(F)F)cc4)nc23)c1 | 280
Brc1ccc(-c2cn([C@H]3CN4CCC3CC4)nn2)s1 | 146
Cc1ccnc(C(=O)c2[nH]c3ccc(Cl)cc3c2CC(=O)NCCO)c1 | 196
CSc1sc(-c2ccncc2)c2c1C(=O)CCC2 | 115 to 116
CS(=O)(=O)c1ccc(CC(=O)c2ccc(F)cc2)cc1 | 182 to 183
CC1(C)Cc2cccc(S(N)(=O)=O)c2S1 | 102 to 104
O=C(O)C1(NS(=O)(=O)c2ccc3oc4cc(Br)ccc4c3c2)CCCC1 | 177 to 178
O=C1NC(=O)c2c1c(-c1ccccc1Cl)cc1oc3cc(OCCCN4CCCC4)c(O)cc3c21 | 302 to 304
COC(=O)c1nccn1C(c1ccccc1)(c1ccccc1)c1ccccc1 | 186 to 188

Compound | melting point [°C]
COc1cccc(CNc2ncnc3c2sc2nc(N4CCCC4)c4c(c23)CC(C)(C)OC4)c1OC | 166 to 168
CNS(=O)(=O)c1cn(C)c2c(OC)c(OC)c(OC)cc2c1=O | 184 to 186
Nc1cccc(-c2ccc(C3(O)C4CCC3CN(Cc3ccco3)C4)cc2)n1 (centres undefined) | 187 to 202
CCOC(=O)C1=C(C)Nc2nc(N)nc(N)c2C1c1ccc(Cl)c(Cl)c1 (centres undefined) | 244
CC1(COc2ccc(CC3SC(=O)NC3=O)cc2)CCc2cc(C(=O)O)ccc2O1 (centres undefined) | 223 to 225
CC(C)(C)c1nc(CO)c[nH]1 | 212 to 221
N=C(N)NCCCCCOc1cccc2c1NC(=O)C(CC(=O)O)C2 (centres undefined) | 126 to 131
COC1(c2cccc(Sc3ccc4c(c3)C(C)(C)S(=O)(=O)C4(C)C)c2)CCOCC1 | 133 to 135
CC(O)C#CC1CCC2C3CCC4CC(O[Si](c5ccccc5)(c5ccccc5)C(C)(C)C)CCC4(C)C3CCC12C (centres undefined) | 68 to 70
Cc1cccc(CC(=O)O)c1OCCCc1cc(OC(C)C)nn1Cc1ccc(Cl)cc1Cl | 70 to 71
Oc1ccc(-c2cc3c(Cl)c(O)ccc3o2)cc1 | 210 to 214
NCc1ccc(N2C(=O)N(c3ccccc3Br)Cc3cnc(Nc4ccccc4)nc32)cc1 | 133 to 136
CC(=O)Nc1cccc2c1C(=O)OC2=O | 180 to 183
CC(C)C1(C)N=C(c2nc3ccc(OC(F)F)cc3cc2C(=O)O)NC1=O (centres undefined) | 208 to 209
CC(C)(C)OC(=O)c1ncn2c1[C@@H]1CCN1C(=O)c1c(Br)cccc1-2 | 240 to 241
COc1ccc(COc2ccc(C(=O)O)cc2OCc2ccc(OC)cc2)cc1 | 171 to 172
Cc1c(Br)csc1C#N | 54 to 58
CC(C)(C)NC(=O)c1nn(-c2ccc(F)cc2)c2c1C1CC3CC(C1)CC2C3 | 214 to 216
N#CCCNC(=O)c1cccc(-c2cccn3nc(Nc4cccc(C(F)(F)F)c4)nc23)c1 | 214 to 215
CC(C)(C)c1cc(OCC(N)=S)cc(C(C)(C)C)c1O | 163 to 164
CN(C)Cc1ccccc1Sc1ccc(F)cc1[N+](=O)[O-] | 57 to 59
CNC(=S)C1=C(O)C(COC)(COC)Oc2ccc([N+](=O)[O-])cc21 | 97 to 101
CC(=O)OC1CSC(Oc2ccc(-c3ccnc(F)c3)nc2Cl)C(OC(C)=O)C1OC(C)=O (centres undefined) | 226

Compound | melting point [°C]
Cc1cc2c(-c3ccccc3C)c(C#N)n(C)c(=O)c2cc1C | 217 to 218
COc1cc2c(c(OC(C)=O)c1)C1CCC3(C)C(OC(C)=O)=CCC3C1CC2 (centres undefined) | 118
CCOC(=O)Cc1ccc(OCCCN2CCC(C(O)(c3ccc(F)cc3)c3ccc(F)cc3)CC2)c(OC)c1 | 110 to 112
O=C(Cn1sc2ccccc2c1=O)N1CCN(C(=O)Oc2ccc([N+](=O)[O-])cc2)CC1 | 114 to 118
CCOC(=O)CNC(=O)N1CCn2c(c(C(N)=O)c(Cl)c2-c2ccccc2)C1 | 94 to 97
CCOC(=O)O[C@H](c1ccc(S(C)(=O)=O)cc1)[C@@H](CF)NC(=O)C(Cl)Cl | 110 to 112
CC(=O)c1ccc(S(=O)(=O)N(CCO)CCO)cc1 | 87.5 to 89.5
CC1=C(C(=O)OCC2CC2)C(c2ccccc2C(F)(F)F)c2c(ccnc2OC(C)C)N1 (centres undefined) | 112 to 114
COC(=O)CS(=O)Cc1cccc(-c2nc(=O)c3ccccc3s2)n1 (centres undefined) | 150 to 151
CC(CN1CC=C(c2ccc(Cl)cc2)CC1)C(O)c1ccccc1 (centres undefined) | 103 to 105
Nc1ccc(-n2ccn(CCCC3CCCCC3)c2=O)cc1 | 83 to 85
CS(=O)(=O)N(Cl)C(=O)c1cc(Oc2ccc(Cl)cc2Cl)ccc1[N+](=O)[O-] | 161 to 163
CC(C)(C)c1cc(N2C=NC(NC(=N)N)S2)cc(C(C)(C)C)c1O (centres undefined) | 276
Cc1cccc(NC(=O)NC2CN(C(=O)C3CCCCC3)c3ccccc3N(CC(=O)c3ccccc3C)C2=O)c1 (centres undefined) | 148 to 151
Nc1ccc(CP2(=O)OCCCO2)cc1 | 172 to 173
COc1ccc(NN=C(Sc2c(C)cccc2C)C(C)=O)cc1 | 107 to 109
C=CCOc1ccccc1OCC=Cc1ccc(OC)c(OC)c1 | 60 to 60.5
Cn1nc(C(=O)O)nc1CCCC(O)=S | 118 to 120
CCC(Oc1ccc(-c2ccc(C#N)c(Cl)c2)cc1)C(O)CCc1cccnc1 (centres undefined) | 99 to 100
CCOC(=O)c1cnc(OC)nc1Cl | 26 to 28
NS(=O)(=O)c1ccc2[nH]cc(CCN3C(=O)c4ccccc4C3=O)c2c1 | 285 to 290
CCCCCCCCCCCCCCCCNc1ccc(C(=O)OCCCCO)cc1 | 61 to 63
COC1(OC)CCN(c2cc3c(cc2F)c(=O)c(C(=O)O)cn3C2CC2)C1 | 224 to 226
